Laboratory results as given in patent publication US4731109A, “Herbicidal 2-haloacetanilides” (Monsanto Company, priority 1982, dated 1988).

Experiments:
Assay in all cases: Greenhouse pre-emergence GR15/GR85 selectivity test
Type in all cases: in vivo
[1] = tested on: Quackgrass
Excerpt: (§1) A good grade of top soil is placed in aluminum pans and compacted to a depth of three-eighths to one-half inch from the top of the pan. On the top of the soil is placed a number of seeds or vegetative propagules of various plant species. The soil required to level fill the pans after seeding or adding vegetative propagules is weighed into a pan. The soil and a known amount of the active ingredient applied in a solvent or as a wettable powder suspension are thoroughly mixed, and used to cover the prepared pans. […] As an alternative procedure, the overhead irrigation may be omitted. Observations are made about 2-3 weeks after seeding and treatment.
(§2) A further guide to the effectiveness of a chemical as a selective herbicide is the "selectivity factor" ("SF") for a herbicide in given crops and weeds. The selectivity factor is a measure of the relative degree of crop safety and weed injury and is expressed in terms of the GR15 /GR85 ratio, i.e., the GR15 rate for the crop divided by the GR85 rate for the weed, both rates in kg/ha (lb/A). In the tables below, selectivity factors are shown in parenthesis following the GR85 rate for each weed; the symbol "NS" indicates "non-selective". Marginal or undetermined selectivity is indicated by a dash (--).
(§3) These weeds are commonly associated with such major crops as corn and soybeans. […] The test procedure was the same as described for Tables II and III but modified by the application of an initial overhead irrigation equivalent to 1/4" (0.64 cm) rainfall; subsequent watering was accomplished by subirrigation. "NS" means non-selective within the test limits.
(§4) Unless otherwise noted; greenhouse tests in Table VI and in other tables below involved herbicide treatments by soil incorporation and an initial overhead irrigation followed by subirrigation as described above.

[2] = tested on: Yellow Nutsedge
Excerpt: as §1, §2, §3, §4

[3] = tested on: corn
Excerpt: (§5) A good grade of top soil is placed in aluminum pans and compacted to a depth of three-eighths to one-half inch from the top of the pan. On the top of the soil is placed a number of seeds or vegetative propagules of various plant species. The soil required to level fill the pans after seeding or adding vegetative propagules is weighed into a pan. The soil and a known amount of the active ingredient applied in a solvent or as a wettable powder suspension are thoroughly mixed, and used to cover the prepared pans. After treatment, the pans are given an initial overhead irrigation of eater, equivalent to one-fourth inch (0.64 cm) rainfall, then watered by subirrigation as need to give adequate moisture for germination and growth. As an alternative procedure, the overhead irrigation may be omitted. Observations are made about 2-3 weeks after seeding and treatment.
(§6) In the discussion and tables of data below, reference is made to herbicide application rates symbolized as "GR15 " and "GR85 "; these rates are given in kilograms per hectare (kg/ha) which are convertible into pounds per acre (lbs/A) by dividing the kg/ha rate by 1.12.
as §2
(§7) In Table IV pre-emergence herbicidal activity data are presented comparing the relative efficacy of the invention compounds and said prior art compounds as selective herbicides against the resistant and troublesome perennial weeds quackgrass and yellow nutsedge in soybeans and corn, respectively. These weeds are commonly associated with such major crops as corn and soybeans. The test data in Table IV were obtained under identical procedural conditions and represent two replicate runs (except for the compound of Example 9 which was present in one comparative test). The test procedure was the same as described for Tables II and III but modified by the application of an initial overhead irrigation equivalent to 1/4" (0.64 cm) rainfall; subsequent watering was accomplished by subirrigation. "NS" means non-selective within the test limits.
(§8) Additionally, pre-emergence herbicidal data from other tests have established that compounds according to this invention also selectively suppress quackgrass, yellow nutsedge and/or other weeds in one or more of the crops cotton, peanuts, bush beans and/or rape. For example, in Table VI are presented data showing the herbicidal selectivity of the compounds of Examples 1 and 2 against quackgrass in rape and snap beans. Unless otherwise noted; greenhouse tests in Table VI and in other tables below involved herbicide treatments by soil incorporation and an initial overhead irrigation followed by subirrigation as described above.

[4] = tested on: soybeans
Excerpt: as §5, §6, §2, §7, §8

[5] = tested on: cotton; details: cotton/yellow nutsedge, average of two replicates
Excerpt: as §5, §6, §2, §8
In one multi-crop test in the greenhouse, the compounds of Examples 1, 9, and 10 were tested against yellow nutsedge in cotton, soybeans, corn and rice; each compound was non-selective with respect to yellow nutsedge in rice. However, markedly high selectivities for yellow nutsedge in cotton, soybeans and corn were shown for each of the compounds in the test; the respective GR15 and GR85 rates for these compounds are shown in Table XII selectivity factors are shown in parenthesis after each crop.

[6] = quackgrass in corn, Table IV, Replicate #2
[7] = yellow nutsedge in corn, Table IV, Replicate #1
[8] = yellow nutsedge in corn, Table IV, Replicate #2
[9] = yellow nutsedge in soybeans, Table IV, Replicate #1
[10] = yellow nutsedge in soybeans, Table IV, Replicate #2
[11] = quackgrass in soybeans, Table V
[12] = yellow nutsedge in corn, Table V
[13] = yellow nutsedge in soybeans, Table V
[14] = in cotton, average of two replicates

SMILES	GR85 ([1]; Table IV, Replicate #2)	selectivity factor (GR15/GR85) [1, 6]	GR85 ([2]; Table IV, Replicate #1)	GR85 ([2]; Table IV, Replicate #2)	selectivity factor (GR15/GR85) [2, 7]	selectivity factor (GR15/GR85) [2, 8]	selectivity factor (GR15/GR85) [2, 9]	selectivity factor (GR15/GR85) [2, 10]	GR15 ([3]; Table IV, Replicate #1)	GR15 ([3]; Table IV, Replicate #2)	GR85 ([1]; Table V)	selectivity factor (GR15/GR85) ([1]; quackgrass in corn, Table V)	selectivity factor (GR15/GR85) [1, 11]	GR85 ([2]; Table V)	selectivity factor (GR15/GR85) [2, 12]	selectivity factor (GR15/GR85) [2, 13]	GR15 ([3]; Table V)	also measured
COCCN(C(=O)CCl)c1ccccc1C(F)(F)F [A, N-(methoxyethyl)-2'-trifluoromethyl-2-chloroacetanilide, reference compound]	> 2.2 Kg/Ha	NS (non-selective)	1.2 Kg/Ha	1.0 Kg/Ha	> 2	2	> 2	> 2	> 2.2 Kg/Ha	2.2 Kg/Ha	–	–	–	–	–	–	–	GR85 ([1]; Table IV, Replicate #1, extrapolated value): 2.5 Kg/Ha
CCOCCN(C(=O)CCl)c1ccccc1C(F)(F)F [B, N-(ethoxyethyl)-2'-trifluoromethyl-2-chloroacetanilide, reference compound]	0.64 Kg/Ha	NS (non-selective)	0.47 Kg/Ha	0.43 Kg/Ha	2.5	NS (non-selective)	4	4.5	1.2 Kg/Ha	0.37 Kg/Ha	–	–	–	–	–	–	–	GR85 ([1]; Table IV, Replicate #1): 0.56 Kg/Ha; selectivity factor (GR15/GR85) ([1]; quackgrass in corn, Table IV, Replicate #1): 2; selectivity factor (GR15/GR85) ([1]; quackgrass in soybeans, Table IV, Replicate #1): 3.5; selectivity factor (GR15/GR85) ([1]; quackgrass in soybeans, Table IV, Replicate #2): 3
COCCN(C(=O)CCl)c1c(C)cccc1C(F)(F)F [C, N-(methoxyethyl)-2'-trifluoromethyl-6'-methyl-2-chloroacetanilide, reference compound]	–	–	–	–	–	–	–	–	–	–	0.28 Kg/Ha	5	> 10	0.28 Kg/Ha	5	> 10	1.3 Kg/Ha	–
COCC(C)N(C(=O)CCl)c1c(C)cccc1C(F)(F)F (stereo not shown) [D, N-(methoxyisopropyl)-2'-trifluoromethyl-6'-methyl-2-chloroacetanilide, reference compound]	–	–	–	–	–	–	–	–	–	–	1.7 Kg/Ha	1	> 1.5	0.45 Kg/Ha	4	> 6	2.0 Kg/Ha	GR15 ([4]; Table V): > 2.8 Kg/Ha
CCOCCN(C(=O)CCl)c1c(C)cccc1C(F)(F)F [E, N-(ethoxyethyl)-2'-trifluoromethyl-6'-methyl-2-chloroacetanilide, reference compound]	–	–	–	–	–	–	–	–	–	–	0.28 Kg/Ha	2.5	3	0.22 Kg/Ha	3	4	0.67 Kg/Ha	–
C#CCOCN(C(=O)CCl)c1c(C)cccc1C(F)(F)F [Example 8, N--(propargyloxymethyl)-2'-trifluoromethyl-6'-methyl-2-chloroacetanilide]	–	–	–	–	–	–	–	–	–	–	–	–	–	–	–	–	–	GR85 ([1]; both corn and soybeans): 0.5 kg/ha; S.F. (GR15/GR85) ([1]; in corn): 4.5; S.F. (GR15/GR85) ([1]; in soybeans): 4.5; GR85 ([2]; in corn): 0.95 kg/ha; S.F. (GR15/GR85) ([2]; in corn): 2.5; GR85 [2, 14]: 0.95 kg/ha; S.F. (GR15/GR85) [2, 14]: 2; GR85 ([2]; in soybeans): 0.5 kg/ha; S.F. (GR15/GR85) ([2]; in soybeans): 4.5; GR15 ([4]; soybeans/quackgrass): > 2.2 kg/ha; GR15 ([4]; soybeans/yellow nutsedge): 2.2 kg/ha; GR15 ([3]; corn/quackgrass): > 2.2 kg/ha; GR15 ([3]; corn/yellow nutsedge): > 2.2 kg/ha; GR15 [5]: 2.0 kg/ha
